Source: BigSolDB 2.1

CC(=O)Oc1ccc(C2CC(=O)c3c(OC(C)=O)cc(OC(C)=O)cc3O2)cc1 (stereo not given)
solubility (mole fraction)
Settings	278.2 K	288.2 K	298.2 K	308.2 K	318.2 K
in 2-butoxyethanol	0.0018	0.00253	0.00337	0.00476	0.00712
in 2-methoxyethanol	0.00836	0.0108	0.0174	0.0235	0.0356
in 2-propoxyethanol	0.00485	0.00629	0.00775	0.00887	0.0116
in THF	0.0413	0.0483	0.058	0.0732	0.0902
in acetone	0.0759	0.0869	0.11	0.129	0.166
in ethanol	0.000721	0.000931	0.00132	0.00175	0.00239
in ethyl acetate	0.022	0.034	0.045	0.0714	0.103
in isopropanol	0.000289	0.000426	0.000667	0.00102	0.00152
in methanol	0.00122	0.00155	0.00217	0.00289	0.00407
in n-butanol	0.000228	0.000353	0.000491	0.000752	0.00106
in n-hexanol	1.8e-05	2.4e-05	3e-05	4.6e-05	6.4e-05
in n-pentanol	0.000249	0.000402	0.000556	0.00101	0.00141
in n-propanol	0.000649	0.000873	0.00127	0.00165	0.00245
in sec-butanol	0.000216	0.000372	0.000507	0.000824	0.00122
